Data reported in patent US12156880B2, “Heterocyclic RIP1 kinase inhibitors” (Rigel Pharmaceuticals, Inc., priority 2021, dated 2024).

What was measured:
RIPK1 = target: T1, RIPK1 (Homo sapiens, UniProt Q13546); test: RIPK1 ADP-Glo biochemical kinase assay; conditions: read-out: RIPK1 ADP-Glo Kinase (IC50)
T1 sequence (Q13546 1-671): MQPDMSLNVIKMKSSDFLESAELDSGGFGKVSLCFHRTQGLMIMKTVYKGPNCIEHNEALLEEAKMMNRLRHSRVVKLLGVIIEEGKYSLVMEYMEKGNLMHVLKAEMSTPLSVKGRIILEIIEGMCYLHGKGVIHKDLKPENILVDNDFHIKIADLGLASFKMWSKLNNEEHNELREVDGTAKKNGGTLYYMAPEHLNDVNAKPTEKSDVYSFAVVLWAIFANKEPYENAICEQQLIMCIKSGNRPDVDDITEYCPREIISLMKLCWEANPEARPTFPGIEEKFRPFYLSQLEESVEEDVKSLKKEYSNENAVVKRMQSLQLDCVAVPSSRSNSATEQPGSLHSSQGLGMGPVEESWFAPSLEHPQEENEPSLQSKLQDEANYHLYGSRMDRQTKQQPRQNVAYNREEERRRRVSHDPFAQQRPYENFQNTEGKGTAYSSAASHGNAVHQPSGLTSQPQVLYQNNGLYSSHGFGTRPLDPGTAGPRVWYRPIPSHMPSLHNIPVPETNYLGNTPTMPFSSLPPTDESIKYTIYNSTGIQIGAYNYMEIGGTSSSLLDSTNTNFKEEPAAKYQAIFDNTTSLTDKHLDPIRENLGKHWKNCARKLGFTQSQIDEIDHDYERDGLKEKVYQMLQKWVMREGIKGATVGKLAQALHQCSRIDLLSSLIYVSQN
Protocol: In this example, compounds of the disclosure were evaluated using a biochemical assay using the ADP-Glo™ technology.
ADP-Glo™ (Promega, Madison, WI, USA) reagents were thawed at ambient temperature. Kinase Detection Reagent was prepared by mixing kinase detection buffer with the lyophilized kinase detection substrate.
A […] stock volume of 5× Reaction Kinase Buffer was made by mixing 1000 μl of 1M MgCl2, 500 μl of 1M Tris-HCL pH7.4, 0.5 mg/ml (25 mg) of BSA, and 3475 μl of distilled H2O. A 3 ml 2× working stock volume of Reaction Kinase Buffer was made containing a final concentration of 100 μM DTT and 4 mM MnCl2.
Components of RIPK1 enzyme (Rigel Pharmaceuticals, South San Francisco, CA, USA) were thawed on ice. Diluted RIPK1 was prepared in 1× Kinase Reaction Buffer (diluted from 2× buffer) to 31 ng/well.
1.0 ul of diluted compound was added to a 384 well plate in duplicate. […] The final reaction volume was 5.0 μl.
The plate was quickly centrifuged and the reaction was incubated at 30° C. for 30 minutes. Adding 5 μl of ADP-Glo™ terminated the reaction. The plate was quickly centrifuged and the reaction was incubated at room temperature for 40 minutes. Kinase Detection Reagent was then added and incubated at room temperature for 30 minutes. The relative light unit (RLU) of kinase reaction was determined by luminescent (Luminescence 0.1 s) using a Wallac Victor2 Luminometer (PerkinElmer, Waltham, MA, USA).

L929 cells = test: L929 cell necroptosis assay (TNFa + zVAD, CellTiter-Glo recovery); type: cell-based, murine; parameters: L929-CTG-recovery, L929, TNFa + zVAD (IC50): unit not given here; conditions: TNFa 2 ng/mL + zVAD-fmk; for IC50: Mus musculus, L929, 18 h, read-out: L929-CTG-recovery, L929, TNFa + zVAD (IC50); for L929-CTG-recovery, L929, TNFa + zVAD (IC50): 18 hours
Protocol: (§1) In this example, U937 and L929 cells were exposed to compounds of the present disclosure and a cell necroptosis assay was conducted to evaluate the compounds' activity against human RIP1 and murine RIP1.
(§2) U937 and L929 cells were obtained from the American Type Culture Collection (Manassas, VA, USA). Both cells were maintained in logarithmic growth phase in complete RPMI 1640 media (Sigma, ST Louis, MO, USA) supplemented with 10% fetal bovine serum (Sigma, ST Louis, MO, USA) at 37° C. with 5% CO2. For necroptosis assay, L929 cells were plated for 18 h in 100 μL/well medium at 10K cells/well in Costar 96-well black clear-bottom plates (Fisher Scientific, Hampton, NH, USA); U937 cells were plated on the day of the assay in 50 μL/well medium containing 60 uM zVAD-fmk (Lonza, Basel, Switzerland) at 50K cells/well. Medium from L929 cells were removed from the 96-well plates and replaced with 50 μL/well new medium containing 40 uM zVAD-fmk. Each compound of the present disclosure evaluated in this example was serially diluted in DMSO from 2.5 mM in 4-fold dilutions, and then diluted 1:125 in complete medium. 50 μL/well 2× of the compound was then added to the cells in the plates. The cells were pre-incubated with the compound for 1 hour at 37° C. with 5% CO2 and before addition of 10 μL/well 11×TNFa (Peprotech, Rocky Hill, NJ, USA) to give a final concentration of 2 ng/mL for TNFa. The relative amount of necroptosis cells was determined by luminescent using a Wallac Victor2 Luminometer (PerkinElmer, Waltham, MA, USA) and a CellTiter-Glo® Luminescent Cell Viability Reagent Assay (Promega, Madison, WI, USA) added per manufacturer instructions after 18 hours of TNFa stimulation at 37° C. with 5% CO2. This example establishes that embodiments of the compounds described herein have unexpectedly potent activity against human RIP1 and murine RIP1, which allows their assessment in in vivo mouse models of disease.

U937 cells = test: U937 cell necroptosis assay (TNFa + zVAD, CellTiter-Glo recovery); type: cell-based; conditions: Homo sapiens, U-937, 18 h, TNFa 2 ng/mL + zVAD-fmk, read-out: U937 Zvad TNF CTG Recovery, U937, TNFa + zVAD (IC50)
Protocol: as §1, §2

SMILES	IC50 (RIPK1) [nM]	IC50 (L929 cells) [nM]	IC50 (U937 cells) [nM]	L929-CTG-recovery, L929, TNFa + zVAD (IC50) (L929 cells)
CN1C(=O)[C@@H](NC(=O)n2cc(Cc3cccc(F)n3)cn2)COc2ccc(C#CC(O)C(F)(F)F)cc21 (mixture of isomers) [I-105, (±)-4-((6-Fluoropyridin-2-yl)methyl)-N-((3S)-5-methyl-4-oxo-7-(4,4,4-trifluoro-3-hydroxybut-1-yn-1-yl)-2,3,4,5-tetrahydrobenzo[b][1,4]oxazepin-3-yl)-1H-pyrazole-1-carboxamide]	16.8	1540	8.6	
CN1C(=O)[C@@H](NC(=O)n2cc(Cc3cccc(F)n3)cn2)COc2ccc(C#CC(C)(C)O)cc21 [I-1, (S)-4-((6-Fluoropyridin-2-yl)methyl)-N-(7-(3-hydroxy-3-methylbut-1-yn-1-yl)-5-methyl-4-oxo-2,3,4,5-tetrahydrobenzo[b][1,4]oxazepin-3-yl)-1H-pyrazole-1-carboxamide]	20.6	2300	11.4	
Cc1cccc(Cc2cnn(C(=O)N[C@H]3COc4ccc(C#CC(C)(C)O)cc4N(C)C3=O)c2)n1 [I-2, (S)—N-(7-(3-Hydroxy-3-methylbut-1-yn-1-yl)-5-methyl-4-oxo-2,3,4,5-tetrahydrobenzo[b][1,4]oxazepin-3-yl)-4-((6-methylpyridin-2-yl)methyl)-1H-pyrazole-1-carboxamide]	42.2	1800	49.7	
Cc1ccc(Oc2ccnc(C(=O)N[C@H]3COc4ccc(C#CC5(O)COC5)cc4N(C)C3=O)c2)cn1 [I-3, (S)—N-(7-((3-hydroxyoxetan-3-yl)ethynyl)-5-methyl-4-oxo-2,3,4,5-tetrahydrobenzo[b][1,4]oxazepin-3-yl)-4-((6-methylpyridin-3-yl)oxy)picolinamide]	28.9	3850	152	
Cc1ccc(Oc2ccnc(C(=O)N[C@H]3COc4ccc(C#CC(C)(C)O)cc4N(C)C3=O)c2)cn1 [I-4, (S)—N-(7-(3-hydroxy-3-methylbut-1-yn-1-yl)-5-methyl-4-oxo-2,3,4,5-tetrahydrobenzo[b][1,4]oxazepin-3-yl)-4-((6-methylpyridin-3-yl)oxy)picolinamide]	55.3	7060	361	
CN1C(=O)[C@@H](NC(=O)c2cc(Oc3ccc(F)nc3)ccn2)COc2ccc(C#CC3(O)COC3)cc21 [I-5, (S)-4-((6-fluoropyridin-3-yl)oxy)-N-(7-((3-hydroxyoxetan-3-yl)ethynyl)-5-methyl-4-oxo-2,3,4,5-tetrahydrobenzo[b][1,4]oxazepin-3-yl)picolinamide]	24.6	2020	34.9	
CN1C(=O)[C@@H](NC(=O)c2cc(Oc3ccc(F)nc3)ccn2)COc2ccc(C#CC(C)(C)O)cc21 [I-6, (S)-4-((6-fluoropyridin-3-yl)oxy)-N-(7-(3-hydroxy-3-methylbut-1-yn-1-yl)-5-methyl-4-oxo-2,3,4,5-tetrahydrobenzo[b][1,4]oxazepin-3-yl)picolinamide]	40.9	3420	49.6	
CN1C(=O)[C@@H](NC(=O)c2cc(Cc3cccc(F)n3)ccn2)COc2ccc(C#CC3(O)COC3)cc21 [I-7, (S)-4-((6-fluoropyridin-2-yl)methyl)-N-(7-((3-hydroxyoxetan-3-yl)ethynyl)-5-methyl-4-oxo-2,3,4,5-tetrahydrobenzo[b][1,4]oxazepin-3-yl)picolinamide]	18.6	449	14.8	
CN1C(=O)[C@@H](NC(=O)n2cc(Cc3ccccn3)cn2)COc2ccc(Br)cc21 [I-18, (S)—N-(7-Bromo-5-methyl-4-oxo-2,3,4,5-tetrahydrobenzo[b][1,4]oxazepin-3-yl)-4-(pyridin-2-ylmethyl)-1H-pyrazole-1-carboxamide]			286	5013
CN1C(=O)[C@@H](NC(=O)n2cc(Cc3cccc(F)n3)cn2)COc2ccc(Br)cc21 [I-20, (S)—N-(7-Bromo-5-methyl-4-oxo-2,3,4,5-tetrahydrobenzo[b][1,4]oxazepin-3-yl)-4-((6-fluoropyridin-2-yl)methyl)-1H-pyrazole-1-carboxamide]			50.2	5004
CN1C(=O)[C@@H](NC(=O)n2cc(Cc3cccc(C(F)(F)F)n3)cn2)COc2ccc(Br)cc21 [I-21, (S)—N-(7-Bromo-5-methyl-4-oxo-2,3,4,5-tetrahydrobenzo[b][1,4]oxazepin-3-yl)-4-((6-(trifluoromethyl)pyridin-2-yl)methyl)-1H-pyrazole-1-carboxamide]		30400	1370	
CN1C(=O)[C@@H](NC(=O)n2cc(Cc3cccnc3)cn2)COc2ccc(Br)cc21 [I-22, (S)—N-(7-Bromo-5-methyl-4-oxo-2,3,4,5-tetrahydrobenzo[b][1,4]oxazepin-3-yl)-4-(pyridin-3-ylmethyl)-1H-pyrazole-1-carboxamide]			35.1	5004
CN1C(=O)[C@@H](NC(=O)n2cc(Cc3ccncc3)cn2)COc2ccc(Br)cc21 [I-28, (S)—N-(7-Bromo-5-methyl-4-oxo-2,3,4,5-tetrahydrobenzo[b][1,4]oxazepin-3-yl)-4-(pyridin-4-ylmethyl)-1H-pyrazole-1-carboxamide]			235	5027
CN1C(=O)[C@@H](NC(=O)n2cc(Oc3cccc(F)n3)cn2)COc2ccc(C#CC3CCOCC3)cc21 [I-111, (S)-4-((6-Fluoropyridin-2-yl)oxy)-N-(5-methyl-4-oxo-7-((tetrahydro-2H-pyran-4-yl)ethynyl)-2,3,4,5-tetrahydrobenzo[b][1,4]oxazepin-3-yl)-1H-pyrazole-1-carboxamide]		85200	7270	
CN1C(=O)[C@@H](NC(=O)c2cc(Oc3ccccn3)ccn2)COc2ccc(C#CC3(O)COC3)cc21 [I-129, (S)—N-(7-((3-hydroxyoxetan-3-yl)ethynyl)-5-methyl-4-oxo-2,3,4,5-tetrahydrobenzo[b][1,4]oxazepin-3-yl)-4-(pyridin-2-yloxy)picolinamide]	2280		1200	
CN1C(=O)[C@@H](NC(=O)c2cc(Cc3cocn3)ccn2)COc2ccc(C#CC3(O)COC3)cc21 [I-138, (S)—N-(7-((3-hydroxyoxetan-3-yl)ethynyl)-5-methyl-4-oxo-2,3,4,5-tetrahydrobenzo[b][1,4]oxazepin-3-yl)-4-(oxazol-4-ylmethyl)picolinamide]		106	12.9	
